± gives the expanded uncertainty stated by the source.
Legend:
[1] = refractive index (other wavelength) (dimensionless); xn = mol fraction of the nth substance listed; conditions: 101 kPa, Liquid, Wavelength=632.8 nm, Standard Abbe refractometry
[2] = refractive index (other wavelength) (dimensionless); conditions: 101 kPa, Liquid, Wavelength=632.8 nm, Standard Abbe refractometry

CCCCCCCCCCCC [dodecane] + COC(=O)OC
[1], 299.73 K
Conditions | refractive index
x2 = 0.103 | 1.414 ± 0.0004
x2 = 0.204 | 1.4106 ± 0.0004
x2 = 0.299 | 1.4071 ± 0.0004
x2 = 0.409 | 1.4028 ± 0.0004
x2 = 0.512 | 1.3983 ± 0.0004
x2 = 0.611 | 1.3934 ± 0.0004
x2 = 0.713 | 1.3875 ± 0.0004
x2 = 0.791 | 1.3823 ± 0.0004
x2 = 0.899 | 1.3739 ± 0.0004

CCCCCCCCC [nonane] + COC(=O)OC
[1], 281.69 K
Conditions | refractive index
x2 = 0 | 1.4095 ± 0.0004
x2 = 0.105 | 1.4061 ± 0.0004
x2 = 0.201 | 1.4031 ± 0.0004
x2 = 0.305 | 1.3999 ± 0.0004
x2 = 0.405 | 1.3968 ± 0.0004
x2 = 0.505 | 1.3936 ± 0.0004
x2 = 0.596 | 1.3905 ± 0.0004
x2 = 0.706 | 1.3863 ± 0.0004
x2 = 0.8 | 1.3822 ± 0.0004
x2 = 0.888 | 1.3781 ± 0.0004

CCCCCCCCCCCC [dodecane]
[2]
Conditions | refractive index
293.28 K | 1.4203 ± 0.0004
294.33 K | 1.4198 ± 0.0004
295.37 K | 1.4194 ± 0.0004
296.54 K | 1.4189 ± 0.0004
297.58 K | 1.4184 ± 0.0004
298.65 K | 1.418 ± 0.0004
299.72 K | 1.4175 ± 0.0004

COC(=O)OC [dimethyl carbonate] + CCCCCCCCC
Conditions | refractive index
[1], 281.69 K, x1 = 1 | 1.3728 ± 0.0004

COC(=O)OC [dimethyl carbonate]
[2]
Conditions | refractive index
277.78 K | 1.3747 ± 0.0004
278.13 K | 1.3745 ± 0.0004
279.18 K | 1.374 ± 0.0004
280.25 K | 1.3735 ± 0.0004
280.74 K | 1.3733 ± 0.0004
281.69 K | 1.3728 ± 0.0004
293.19 K | 1.3676 ± 0.0004
294.27 K | 1.3671 ± 0.0004
295.3 K | 1.3666 ± 0.0004
296.34 K | 1.3661 ± 0.0004
297.38 K | 1.3656 ± 0.0004
298.4 K | 1.3651 ± 0.0004
299.48 K | 1.3647 ± 0.0004

CCCCCCCCC [nonane]
[2]
Conditions | refractive index
277.15 K | 1.4116 ± 0.0004
278.19 K | 1.4111 ± 0.0004
279.2 K | 1.4106 ± 0.0004
279.71 K | 1.4104 ± 0.0004
280.28 K | 1.4101 ± 0.0004
281.69 K | 1.4095 ± 0.0004
